The values below come from US20250353891A1 (MEDIMMUNE LIMITED, priority 2022, published 2025).

Data set [1] is described as follows: Mouse acute food intake study. In kind it is in vivo. The conditions noted are these: male C57Bl/6 mice, s.c., dose 10 nmol/kg, cumulative food intake at 24 hr vs vehicle. In short, it runs like this:
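Peptide or vehicle went subcutaneously (5 mL/kg) to 6-8 h-fasted male C57Bl/6 mice shortly before the dark phase, with groups balanced on body weight and 24-hour intake. Cumulative food consumption was derived from 48 h of automated BioDaq monitoring with free food and water access.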

Data set [2] is described as follows: Proteolytic resistance to FasSSIF/Pancreatin. In kind it is in vitro ADME. The conditions noted are these: simulated intestinal fluid. On the procedure: A fresh suspension of FasSSIF/P (Fasted-State Simulated Intestinal Fluid+USP Pancreatin®) was prepared according to that described by Galia, Nicolaides, Hörter, Löbenberg, Reppas and Dressman: Pharm. Res. 15 (1998) 698-705, and USP XL requirements. The resulting preparation was used immediately without storage.
Peptide for evaluation (1.0 mg) was dissolved in pre-warmed FasSSIF without Pancreatin® (200 μL). To this fresh FasSSIF/Pancreatin® (100 μL) was added to initiate potential proteolysis. Following momentary vortexing of the reaction tube the mixture was incubated at 37° C. in a thermostatic water bath for the duration of the experiment. 25 μL aliquot of the co-incubated peptide-enzyme mixture was periodically withdrawn (t=0, 5, 10 15 and 30 min) and quenched immediately by addition to a solution of 10% TFA in 1:1 water/acetonitrile (75 μL) to arrest proteolytic activity. Quenched samples were centrifuged (7800 RPM, 3 mins) to pellet solids and 10 μL aliquots of the supernatant solution were analyzed using analytical RP-HPLC as follows: Analytical RP-HPLC method: Agilent Polaris C8-A column (4.6×100 mm, 3 micron) eluted with a linear binary gradient of 10-90% MeCN (0.1% TFA v/v) in water (0.1% TFA v/v) over either 10 or 15 mins at 1.5 mL min^−1 at 40° C. with detection by UV absorption at 210 nm. Manual integration (AUC) allowed estimation of remaining intact peptide over the time course of the experiment.

The test system of data set [3] is GLP-1R knockout (KO) mice. The experiment in a line: Glucose change in GLP-1R knockout mice. The format is in vivo, mouse. The note with it: GLP-1R KO mice, s.c.; for GLP-1R KO % glucose change 120 min: 120 min vs 0 min; for GLP-1R KO % glucose change - 60 min: 60 min vs 0 min. As to the method:
(§1) They acclimated for a minimum of ˜1-2 weeks, and mice were sorted into groups (n=4-8/group) based on body weight. On day of study, mice were fasted briefly for 2 hrs prior to study start. In some studies, mice were pre-treated with octreotide (BaChem, 10 mg/kg) at 30 minutes prior to peptide injection. Glucose was measured via glucometer at various timepoints including-30 min (prior to octreotide when used in studies), 0 min (before peptide dose), 30, 60, 120, 180, 240, and 360 minutes. Since these studies are acute in nature, mice were re-used for multiple studies (no more than 3) and always allowed at least a minimum wash-out period of 1 week.

The next data set deals with wildtype (WT) mice. Description: Glucose change in wildtype mice. The format is in vivo, mouse. The conditions noted are these: s.c.; for WT % glucose change 120 min: 120 min vs 0 min; for WT % glucose change 60 min: 60 min vs 0 min. On the procedure:
as §1, with “GLP-1R knockout (KO) and wildtype (WT) mice at 8-14 weeks of age were singly housed on standard chow diet (Envigo, 2918) and automatic water. They” for “They”

Data set [4] concerns the target human GLP-1 receptor (hGLP-1R) (Homo sapiens, UniProt P43220). Description: cAMP production (HTRF) in CHO cells expressing hGLP-1R. The conditions noted are these: for EC50: geometric mean, read-out: hGLP-1R EC50; for % Relative Potency Ratio: % GLP-1R activity relative to GLP-1 / % GlucR activity relative to glucagon. More on the design: expressed in transfected cells. The format is cell-based. In short, it runs like this:
(§2)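 Cells were resuspended in assay buffer at batch-optimized density, typically 1×10^5 cells/mL for hGLP-1R and 2×10^5 cells/mL for hGCGR. After 30 min incubation at room temperature with compound, cAMP was measured by two-step HTRF. EC50 values came from 4-parameter logistic fits of % Delta F.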

In data set [5] the target is human glucagon receptor (hGCGR) (Homo sapiens, UniProt P47871). Description: cAMP production (HTRF) in CHO cells expressing hGCGR. In kind it is cell-based. More on the design: expressed in transfected cells. The conditions noted are these: geometric mean, read-out: hGluc-R EC50. In short, it runs like this: as §2
Chain of human glucagon receptor (hGCGR) (P47871 26-477): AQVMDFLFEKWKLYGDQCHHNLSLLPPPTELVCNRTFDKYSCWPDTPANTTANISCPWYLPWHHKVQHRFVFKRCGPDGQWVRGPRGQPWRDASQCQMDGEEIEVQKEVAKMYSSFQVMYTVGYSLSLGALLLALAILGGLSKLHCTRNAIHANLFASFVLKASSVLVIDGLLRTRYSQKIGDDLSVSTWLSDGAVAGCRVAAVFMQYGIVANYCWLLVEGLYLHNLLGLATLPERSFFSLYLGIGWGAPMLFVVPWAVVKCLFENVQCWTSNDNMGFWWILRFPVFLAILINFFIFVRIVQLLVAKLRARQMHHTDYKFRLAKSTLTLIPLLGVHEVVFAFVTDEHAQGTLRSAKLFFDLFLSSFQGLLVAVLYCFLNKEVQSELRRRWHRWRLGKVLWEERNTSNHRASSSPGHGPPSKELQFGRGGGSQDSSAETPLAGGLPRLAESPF
A general note: Changes in cAMP serve as a functional read-out for many G protein-coupled receptors.

Setting [6] is: 3 nmol/kg, no somatostatin pretreatment.
[7] abbreviates: 10 nmol/kg, no somatostatin pretreatment.
[8] abbreviates: 30 nmol/kg, no somatostatin pretreatment.
Setting [9] is: 10 nmol/kg, somatostatin pretreatment (octreotide) 30 min prior to cpd.
Setting [10] is: 30 nmol/kg, somatostatin pretreatment (octreotide) 30 min prior to cpd.

The share remaining is what is left of the initial amount, in per cent. For orientation: EC50 means the concentration that produces a half-maximal response.

SMILES strings stand for the structures. Where two headings read alike, the source gives them in different places. Starred links: 1 amine or outer side, 2 acyl side, 3 side chain; linkers in the order of their positions; H or OH if unused. Non-standard residues stand in square brackets, D forms with d. Residues, ends and D or L forms follow the SMILES beside them. Groups on a side chain read outwards from the residue. *: point of attachment. C18 diacid = O=C(O)CCCCCCCCCCCCCCCCC(=O)*; Dip = N[C@H](C(=O)O)C(c1ccccc1)c1ccccc1; γGlu = O=C(O)[C@H](CCC(=O)[*:2])N[*:1]; Palmitoyl = CCCCCCCCCCCCCCCC(=O)*; αMeF = C[C@](N)(Cc1ccccc1)C(=O)O; PEG4 = NCCOCCOCCOCCOCCC(=O)O; AEEA = NCCOCCOCC(=O)O; Aib = CC(C)(N)C(=O)O

Chain of human GLP-1 receptor (hGLP-1R) (P43220 24-463): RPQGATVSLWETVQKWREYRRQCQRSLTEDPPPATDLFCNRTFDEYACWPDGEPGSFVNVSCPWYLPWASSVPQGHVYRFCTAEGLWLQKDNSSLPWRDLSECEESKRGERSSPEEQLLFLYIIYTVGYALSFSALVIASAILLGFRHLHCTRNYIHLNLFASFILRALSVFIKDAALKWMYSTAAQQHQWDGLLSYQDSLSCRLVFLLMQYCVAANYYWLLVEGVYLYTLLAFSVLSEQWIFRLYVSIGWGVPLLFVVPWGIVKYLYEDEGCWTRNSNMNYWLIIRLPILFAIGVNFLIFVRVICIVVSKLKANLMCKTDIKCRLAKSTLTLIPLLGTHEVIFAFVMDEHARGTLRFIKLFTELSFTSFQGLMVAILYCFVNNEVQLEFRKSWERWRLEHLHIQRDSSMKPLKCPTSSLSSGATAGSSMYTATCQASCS

As for `CCCCCCCCCCCCCCCC(=O)N[C@@H](CCC(=O)N[C@@H](CCC(=O)NCCOCCOCCOCCOCCC(=O)NCCCC[C@H](NC(=O)[C@H](CO)NC(=O)[C@H](CC(=O)O)NC(=O)[C@H](CC(C)C)NC(=O)[C@@H](NC(=O)[C@H](CCCCN)NC(=O)[C@H](CO)NC(=O)[C@@H](NC(=O)[C@H](CC(=O)O)NC(=O)[C@H](CO)NC(=O)[C@@H](NC(=O)[C@](C)(Cc1ccccc1)NC(=O)[C@H](CO)NC(=O)CNC(=O)[C@H](CCC(N)=O)NC(=O)C(C)(C)NC(=O)[C@@H](N)Cc1c[nH]cn1)[C@@H](C)O)C(C)C)C(c1ccccc1)c1ccccc1)C(=O)N[C@@H](CCCNC(=N)N)C(=O)N[C@@H](C)C(=O)N[C@@H](CCC(N)=O)C(=O)N[C@@H](CC(=O)O)C(=O)N[C@@](C)(Cc1ccccc1)C(=O)N[C@H](C(=O)N[C@@H](CCC(=O)O)C(=O)NC(C)(C)C(=O)N[C@@H](CC(C)C)C(=O)N[C@@H](CCC(=O)O)C(=O)N[C@@H](C)C(=O)NCC(=O)NCC(N)=O)C(C)C)C(=O)O)C(=O)O` [Peptide 43] (H-H[Aib]QGS[αMeF]TSDVSK[Dip]LDSK([PEG4-γGlu-γGlu-Palmitoyl])RAQD[αMeF]VE[Aib]LEAGG-NH2; N-terminus assumed), the “24 hr % Vehicle Food Intake” value in data set [1] stood at 53.2%. Moreover, in data set [2], the amount remaining at 5 min, 3.3 mg/mL was 83%; the fraction remaining at 10 min, 3.3 mg/mL is 33%; the fraction remaining at 0.25 h, 3.3 mg/mL is 29%; the share remaining at 0.5 h, 3.3 mg/mL was 19%. In addition, in data set [3] (setting [6]), the “GLP-1R KO % glucose change 120 min” value is on record as 63.9%. Besides, the “WT % glucose change 120 min” value with wildtype (WT) mice (setting [6]) is recorded as −56.0%. The EC50 in data set [4] (Table 6, peptides modified at position 17, cAMP in CHO hGLP-1R cells) was 0.00189 nM. Also, the “% Relative Potency Ratio” value in data set [4] (Table 6) is 5.8. For the same molecule, in data set [5] (Table 6, peptides modified at position 17, cAMP in CHO hGCGR cells), the EC50 amounted to 0.00552 nM.
Regarding `CC[C@H](C)[C@H](NC(=O)C(C)(C)NC(=O)[C@H](C)NC(=O)[C@@H](NC(=O)[C@](C)(Cc1ccccc1)NC(=O)[C@H](CC(=O)O)NC(=O)[C@H](CCCCNC(=O)COCCOCCNC(=O)COCCOCCNC(=O)CC[C@H](NC(=O)CCCCCCCCCCCCCCCCC(=O)O)C(=O)O)NC(=O)[C@H](C)NC(=O)[C@H](C)NC(=O)[C@H](CCCNC(=N)N)NC(=O)[C@H](CO)NC(=O)[C@H](CC(=O)O)NC(=O)[C@H](CC(C)C)NC(=O)[C@](C)(Cc1ccccc1)NC(=O)[C@H](CCCCN)NC(=O)[C@H](CO)NC(=O)[C@@H](NC(=O)[C@H](CC(=O)O)NC(=O)[C@H](CO)NC(=O)[C@@H](NC(=O)[C@](C)(Cc1ccccc1)NC(=O)[C@H](CO)NC(=O)CNC(=O)[C@H](Cc1c[nH]cn1)NC(=O)C(C)(C)NC(=O)[C@@H](N)Cc1c[nH]cn1)[C@@H](C)O)C(C)C)[C@@H](C)CC)C(=O)N[C@@H](C)C(=O)N[C@@H](CCC(=O)O)C(=O)N[C@H](C(N)=O)[C@@H](C)O` [Peptide 301] (H-H[Aib]HGS[αMeF]TSDVSK[αMeF]LDSRAAK([AEEA-AEEA-γGlu-C18 diacid])D[αMeF]IA[Aib]IAET-NH2; N-terminus assumed), in data set [1], the “24 hr % Vehicle Food Intake” value is listed as 54.9%. The “GLP-1R KO % glucose change - 60 min” value in data set [3] (setting [7]) came out at 29.1%; in data set [3] (setting [8]) it was 17.9%. In addition, the “WT % glucose change 60 min” value in the data set with wildtype (WT) mice (setting [7]) is given as −43%; in the data set on wildtype (WT) mice (setting [8]) it was −35.7%. Besides, the EC50 came to 0.0553 nM in data set [4] (Table 7, peptides modified at position 20, cAMP in CHO hGLP-1R cells) and 0.0318 nM in data set [5] (Table 7, peptides modified at position 20, cAMP in CHO hGCGR cells). Also, the “% Relative Potency Ratio” value in data set [4] (Table 7) worked out at 1.1.
On to `CC[C@H](C)[C@H](NC(=O)[C@H](Cc1c[nH]c2ccccc12)NC(=O)[C@H](CCCCNC(=O)COCCOCCNC(=O)COCCOCCNC(=O)CC[C@H](NC(=O)CCCCCCCCCCCCCCCCC(=O)O)C(=O)O)NC(=O)[C@@H](NC(=O)[C@H](Cc1ccccc1)NC(=O)[C@H](CC(=O)O)NC(=O)[C@H](CCC(N)=O)NC(=O)[C@H](C)NC(=O)[C@H](C)NC(=O)[C@H](CCCNC(=N)N)NC(=O)[C@H](CO)NC(=O)[C@H](CC(=O)O)NC(=O)[C@H](CC(C)C)NC(=O)[C@](C)(Cc1ccccc1)NC(=O)[C@H](CCCCN)NC(=O)[C@H](CO)NC(=O)[C@@H](NC(=O)[C@H](CC(=O)O)NC(=O)[C@H](CO)NC(=O)[C@@H](NC(=O)[C@](C)(Cc1ccccc1)NC(=O)[C@H](CO)NC(=O)CNC(=O)[C@H](Cc1c[nH]cn1)NC(=O)C(C)(C)NC(=O)[C@@H](N)Cc1c[nH]cn1)[C@@H](C)O)C(C)C)C(C)C)C(=O)N[C@@H](C)C(=O)N[C@@H](CC(N)=O)C(=O)N[C@H](C(N)=O)[C@@H](C)O` [Peptide 361] (H-H[Aib]HGS[αMeF]TSDVSK[αMeF]LDSRAAQDFVK([AEEA-AEEA-γGlu-C18 diacid])WIANT-NH2; N-terminus assumed), for which the “24 hr % Vehicle Food Intake” value in data set [1] turned out to be 78.8%. The “GLP-1R KO % glucose change 120 min” value in data set [3] (setting [9]) came to 91.5%; in data set [3] (setting [10]), 93.8%. Besides, the “WT % glucose change 120 min” value with wildtype (WT) mice (setting [9]) is −23.0%; in the data set on wildtype (WT) mice (setting [10]) it was −38.1%. For the same molecule, the “% Relative Potency Ratio” value in data set [4] was determined as 1.3. Further, the EC50 in data set [4] (cAMP, CHO cells, 0.1% BSA) came out at 0.0357 nM; in data set [5] (cAMP, CHO cells, 0.1% BSA) it was 0.0236 nM.
